Experiments:
Li-Pilo SE [1] = test: Lithium-pilocarpine model (Example 2): mortality and latency to SRS; type: in vivo, rat; design: degree of mortality: concentration or dose not given beside the values
Protocol: The model induced in rats by pilocarpine associated with lithium (Li-Pilo) reproduces most of the clinical and neurophysiological features of human temporal lobe epilepsy (See, Turski et al., 1989; Synapse 3:154-171; Cavalheiro, 1995, Ital J Neurol Sci 16:33-37). In adult rats, the systemic administration of pilocarpine leads to SE that may last for up to 24 h. The lethality rate reaches 30-50% during the first days. In the surviving animals, neuronal damage predominates within the hippocampal formation, the piriform and entorhinal cortices, thalamus, amygdaloid complex, neocortex and substantia nigra.
In the present study, we tested the effects of different doses of various doses of test compound, i.e. 30, 60, 90 and 120 mg/kg (referred to herein as RWJ30, RWJ60, RWJ90 and RWJ120) using the same design as in the previous study. The treatment was started one hour after the onset of status epilepticus (SE) and the animals were treated with a second injection of the same dose of the drug. This early treatment of SE was followed by a 6 day test compound treatment. This report concerns the effects of the four different doses of test compound on neuronal damage in hippocampus and parahippocampal cortices. The study on the latency to the onset of epilepsy is still incomplete but we will show the data we have got at present which have been performed on a limited group of animals. The latency to spontaneous epileptic seizures was correlated on the same rats to the number of neurons remaining in the areas involved in the circuit of seizures.
Adult male Sprague-Dawley rats provided by Janvier Breeding Center (Le Genest-St-Isle, France) were housed under controlled, uncrowded standard conditions at 20-22° C. (light/dark cycle, 7.00 a.m.-7.00 p.m. lights on), with food and water available ad libitum. All animal experimentation was performed in accordance with the rules of the European Communities Council Directive of Nov. 24, 1986 (86/609/EEC), and the French Department of Agriculture (License No 67-97).
All rats received lithium chloride (3 meq/kg, i.p., Sigma, St Louis, Mo., U.S.A.) and about 20 h later, all animals received also methylscopolamine bromide (1 mg/kg, s.c., Sigma) that was administered to limit the peripheral effects of the convulsant. SE was induced by injecting pilocarpine hydrochloride (25 mg/kg, s.c., Sigma) 30 min after methylscopolamine. The effects of increasing doses of test compound (RWJ) were studied in 5 groups of rats. The animals received either 2.5 mg/kg diazepam, i.m., (DZP), or 30, 60, 90 or 120 mg/kg of test compound (RWJ30, RWJ60, RWJ90, RWJ120), i.p., at 1 h after the onset of SE. The control group received vehicle instead of pilocarpine and test compound. The rats surviving SE were then injected about 10 h after the first test compound injection with a second i.p. injection of 1.25 mg/kg DZP for the DZP group or of the same dose of test compound as in the morning and were maintained under a twice daily test compound treatment for 6 additional days (s.c.) while DZP rats received a vehicle injection. The effects of the four doses of test compound on the latency to occurrence of spontaneous recurrent seizures (SRS) were investigated by daily video recording of the animals for 10 h per day.

Li-Pilo SE [2] = test: Lithium-pilocarpine model (Example 2): quantification of cell densities; type: in vivo, rat
Protocol: Quantification of cell densities was performed at two times after SE: a first group was studied 14 days after SE and was composed by 7 DZP, 8 RWJ30, 11 RWJ60, 10 RWJ90, 8 RWJ120 and 8 control rats not subjected to SE. A second group used for the study of the latency to SRS was sacrificed either 8 weeks after the first SRS or at 5 months when no SRS could be seen in that delay and was composed by 7 DZP, 2 RWJ30, 3 RWJ60, 3 RWJ90, 4 RWJ120 rats. Animals were deeply anesthetized with 1.8 g/kg pentobarbital (Dolethal®, Vétoquinol, Lure, France). Brains were then removed and frozen. Serial 20 μm slices were cut in a cryostat, air-dried during several days before thionine staining. Quantification of cell densities was performed with a 10×10 boxes 1 cm^2 microscopic grid on coronal sections according to the stereotaxic coordinates of the rat brain atlas (Paxinos and Watson, 1986, The Rat Brain in Stereotaxic coordinates, 2nd ed. Academic Press, San Diego). The grid of counting was placed on a well-defined area of the cerebral structure of interest and counting was carried out with a microscopic enlargement of 200- or 400-fold defined for each single cerebral structure. Cell counts were performed twice on each side of three adjacent sections for each region by a single observer unaware of the animal's treatment. The number of cells obtained in the 12 counted fields in each cerebral structure was averaged. This procedure was used to minimize the potential errors that could result from double counting leading to overestimation of cell numbers. […] Counts involved only neurons with cell bodies larger than 10 μm. Cells with small cell bodies were considered as glial cells and were not counted.
For neuronal damage, statistical analysis between groups was performed by means of a one-way analysis of variance followed by a post-hoc Scheffe's test using the Statview software.

[3] = 14 days after SE, DZP 2.5 mg/kg i.m., mean ± S.E.M.
[4] = DZP vs control rats, 14 days after SE

In the case of `CN1C(=O)CN=C(c2ccccc2)c2cc(Cl)ccc21` [DZP, diazepam, reference compound], the “latency to spontaneous seizures (mean)” value (Li-Pilo SE [1]; DZP group, 7 rats) is reported as 18 ± 8 days, the “mortality over the first 48 h after SE” value (Li-Pilo SE [1]; early cell counting group, DZP 2.5 mg/kg i.m.) is reported as 47% and the degree of mortality (Li-Pilo SE [1]; latency to SRS / late cell counting group, DZP) is reported as 30%. The “number of neuronal cell bodies, Dorsal entorhinal, layer II” value (Li-Pilo SE [2]; [3]) was 23.5 ± 0.7, the “number of neuronal cell bodies, Dorsal entorhinal, layer III” value (Li-Pilo SE [2]; [3]) was 22.3 ± 0.5 and the “number of neuronal cell bodies, Piriform, layer II, dorsal” value (Li-Pilo SE [2]; [3]) was 12.6 ± 4.2. For the same molecule, the “number of neuronal cell bodies, Piriform, layer II, ventral” value (Li-Pilo SE [2]; [3]) was 3.6 ± 0.7, the “number of neuronal cell bodies, Piriform, layer III” value (Li-Pilo SE [2]; [3]) was 1.2 ± 1.2 and the “number of neuronal cell bodies, Ventral entorhinal, layer II” value (Li-Pilo SE [2]; [3]) was 21.7 ± 1.3. The “number of neuronal cell bodies, Ventral entorhinal, layers III-IV” value (Li-Pilo SE [2]; [3]) was 7.7 ± 2.3, the “number of neuronal cell bodies, hippocampus CA1 area” value (Li-Pilo SE [2]; [3]) was 10.9 ± 1.9 and the “number of neuronal cell bodies, hippocampus CA3 area” value (Li-Pilo SE [2]; [3]) was 31.3 ± 2.9. The “number of neuronal cell bodies, hippocampus Hilus” value (Li-Pilo SE [2]; [3]) was 33.5 ± 3.0, the “damage, entorhinal cortex dorsal layers II and III/IV and ventral layer II” value (Li-Pilo SE [2]; DZP group) was 18-24% and the “cell loss, CA1 pyramidal cell layer” value (Li-Pilo SE [2]; [4]) was 85%. For the same molecule, the “cell loss, CA3” value (Li-Pilo SE [2]; [4]) was 40%, the “cell loss, hilus of dentate gyrus” value (Li-Pilo SE [2]; [4]) was 66% and the “cell loss, piriform cortex dorsal layer II” value (Li-Pilo SE [2]; [4]) was 66%. For the same molecule, the “cell loss, piriform cortex layer III” value (Li-Pilo SE [2]; [4]) was 94%, the “cell loss, piriform cortex ventral layer II” value (Li-Pilo SE [2]; [4]) was 89% and the “damage, dorsal entorhinal cortex layer II” value (Li-Pilo SE [2]; [4]) was 18%. The “damage, dorsal entorhinal cortex layers III-IV” value (Li-Pilo SE [2]; [4]) was 24%, the “damage, ventral entorhinal cortex layer II” value (Li-Pilo SE [2]; [4]) was 22% and the “damage, ventral entorhinal cortex layers III/IV” value (Li-Pilo SE [2]; [4]) was 74%.
